Assay results from patent publication US11976075B2, “Inhibitors of the MYST family of lysine acetyl transferases” (Isosterix, Inc., priority 2022, dated 2024).

Each compound was assayed against T1, Recombinant KAT6A/MOZ (488-778) protein (Homo sapiens, UniProt Q92794) (assay: Kat6a AlphaLISA Inhibition Screening Assay). Conditions: 10′ pre-incubation; Table 2; read-out: Kat6A biochemical assay: IC50.
T1 construct: Recombinant KAT6A/MOZ (488-778) protein (Active motif, Catalog #81223); purchased Active Motif 81223
T1 sequence (Q92794 488-778): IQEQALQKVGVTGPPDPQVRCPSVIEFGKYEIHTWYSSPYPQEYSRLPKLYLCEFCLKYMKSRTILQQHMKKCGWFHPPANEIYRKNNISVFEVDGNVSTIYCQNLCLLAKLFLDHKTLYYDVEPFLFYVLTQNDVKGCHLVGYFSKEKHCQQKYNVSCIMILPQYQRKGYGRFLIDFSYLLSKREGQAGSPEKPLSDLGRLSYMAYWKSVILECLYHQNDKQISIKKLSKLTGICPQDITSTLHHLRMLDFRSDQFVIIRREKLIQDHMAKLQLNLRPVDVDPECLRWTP
Format: biochemical
Procedure: The Kat6a inhibitory activity of test compounds was determined using an Alpha Screen-based detection method. The assay reactions were conducted in a volume of 10 μL in Alpha Plate, White 384 well plate (cat #6008280, Perkin Elmer). The enzymatic reactions were performed in assay buffer pH 8.0 (50 mM Tris-HCl, 0.1 mM EDTA, 0.01% Tween-20, 1 mM Dithiothreitol, 0.1% BSA (fatty acid free) and 330 nM TSA (Trichostatin A)). 10 μL reaction volume consisting of 25 nM of Recombinant KAT6A/MOZ (488-778) protein (Active motif, Catalog #81223), 400 nM Acetyl coenzyme A (Catalog #A2056, Sigma), 200 nM of Histone H3 peptide [(amino acids 1-21), biotin-labeled (BPS Biosciences, Catalog #52011,)] and a 10-point dose response curve for test/tool compounds were prepared. Enzyme and compounds solution were pre-incubated in assay plate for 60 or 10 min at room temperature then substrate and Acetyl coenzyme A solution were added to the plate. After addition, the plate was sealed with adhesive seals and incubated for 120 minutes at room temperature.
After 120 minutes of incubation, 5 μL (10 μg/mL) of AlphaLISA anti-acetyl-Lysine acceptor beads (Perkin Elmer, Catalog #AL143C) were added to the plate and it was incubated for 60 minutes at room temperature. Then 10 μL (10 μg/mL) of Alpha Streptavidin donor beads (Perkin Elmer, Catalog #6760002S) were added to the plate which was further incubated for 60 minutes at room temperature. After incubation, the alpha signal was recorded by using Perkin Elmer Envision multi-mode reader.
NA means the compound was not active at the concentration tested. […] NT means not tested.

Row | Structure (SMILES) | IC50
1 | C#CC(=O)NCc1ccc2cc(C(=O)NS(=O)(=O)c3ccccc3F)oc2c1 [Synthetic Example 11, N-((2-fluorophenyl)sulfonyl)-6-(propiolamidomethyl)benzofuran-2-carboxamide] | 20 to 50 µM

Same assay, conditions: 10′ pre-incubation; Table 3; read-out: Kat6A Biochemical assay: IC50

Row | Structure (SMILES) | IC50
2 | COc1cc(Cn2cccn2)cc2[nH]nc(NS(=O)(=O)c3ccccc3F)c12 [compound 124, N-(6-((1H-pyrazol-1-yl)methyl)-4-methoxy-1H-indazol-3-yl)-2-fluorobenzenesulfonamide] | 20 to 50 µM

Same assay, conditions: 60′ pre-incubation; Table 2; read-out: Kat6A biochemical assay: IC50

Row | Structure (SMILES) | IC50
3 | C=CS(=O)(=O)N1CCC(c2ccnc(-c3cc(C)cc(C(=O)NNS(=O)(=O)c4ccccc4F)c3)c2)CC1 [Synthetic Example 42, 2-fluoro-N′-(3-methyl-5-(4-(1-(vinylsulfonyl)piperidin-4-yl)pyridin-2-yl)benzoyl)benzenesulfonohydrazide] | ≤ 10 µM
4 | COc1ccccc1S(=O)(=O)Nc1noc2cc(Cn3cc(CNC(=O)C#CCO)cn3)cc(OC)c12 [Synthetic Example 53, 4-hydroxy-N-((1-((4-methoxy-3-((2-methoxyphenyl)sulfonamido)benzo[d]isoxazol-6-yl)methyl)-1H-pyrazol-4-yl)methyl) but-2-ynamide] | ≤ 10 µM
5 | C#CC(=O)NC1CCN(Cc2cc(OC)c3c(NS(=O)(=O)c4ccccc4OC)noc3c2)CC1 [Synthetic Example 64] | ≤ 10 µM
6 | C=CC(=O)NCc1cnn(Cc2cc(OC)c3c(NS(=O)(=O)c4ccccc4OC)noc3c2)c1 [Synthetic Example 51, N-((1-((4-methoxy-3-((2-methoxyphenyl)sulfonamido)benzo[d]isoxazol-6-yl)methyl)-1H-pyrazol-4-yl)methyl)acrylamide] | ≤ 10 µM
7 | C=CC(=O)N1C[C@H]2CN(Cc3cc(OC)c4c(NS(=O)(=O)c5ccccc5OC)noc4c3)C[C@H]2C1 [Synthetic Example 50, N-(6-(((3aR,6aS)-5-acryloylhexahydropyrrolo[3,4-c]pyrrol-2(1H)-yl)methyl)-4-methoxybenzo[d]isoxazol-3-yl)-2-methoxybenzenesulfonamide] | ≤ 10 µM
8 | C=CC(=O)N(C)Cc1cnn(Cc2cc(OC)c3c(NS(=O)(=O)c4ccccc4OC)noc3c2)c1 [Synthetic Example 47, N-((1-((4-methoxy-3-((2-methoxyphenyl)sulfonamido)benzo[d]isoxazol-6-yl)methyl)-1H-pyrazol-4-yl)methyl)-N-methylacrylamide] | ≤ 10 µM
9 | C=CC(=O)NCc1ccn(Cc2cc(OC)c3c(NS(=O)(=O)c4ccccc4F)noc3c2)n1 [Synthetic Example 18, N-((1-((3-((2-fluorophenyl)sulfonamido)-4-methoxybenzo[d]isoxazol-6-yl)methyl)-1H-pyrazol-3-yl)methyl)acrylamide] | ≤ 10 µM
10 | C#CC(=O)NCc1cnn(Cc2cc(OC)c3c(NS(=O)(=O)c4cccc(C(=O)NC)c4)noc3c2)c1 [Synthetic Example 52, 3-(N-(4-methoxy-6-((4-(propiolamidomethyl)-1H-pyrazol-1-yl)methyl)benzo[d]isoxazol-3-yl)sulfonyl)-N-methylbenzamide] | ≤ 10 µM
11 | C#CC(=O)N1CCN(c2cccc(-c3cc(OC)c4c(NS(=O)(=O)c5c(OC)cccc5OC)noc4c3)c2)CC1 [compound 71, 2,6-dimethoxy-N-(4-methoxy-6-(3-(4-propioloylpiperazin-1-yl)phenyl)benzo[d]isoxazol-3-yl) benzenesulfonamide] | ≤ 10 µM
12 | C#CC(=O)NCc1cnn(Cc2cc(OC)c3c(NS(=O)(=O)c4cc(CC)ccc4OC)noc3c2)c1 [compound 69, N-((1-((3-((5-ethyl-2-methoxyphenyl)sulfonamido)-4-methoxybenzo[d]isoxazol-6-yl)methyl)-1H-pyrazol-4-yl)methyl) propiolamide] | ≤ 10 µM
13 | C#CC(=O)NCc1cnn(Cc2cc(OC)c3c(NS(=O)(=O)c4ccc(C(=O)NC)cc4OC)noc3c2)c1 [Synthetic Example 46, 3-methoxy-4-(N-(4-methoxy-6-((4-(propiolamidomethyl)-1H-pyrazol-1-yl)methyl)benzo[d]isoxazol-3-yl)sulfamoyl)-N-methylbenzamide] | ≤ 10 µM
14 | C=CC(=O)N1CCC(c2ccnc(-c3cc(C)cc(C(=O)NNS(=O)(=O)c4ccccc4F)c3)c2)CC1 [Synthetic Example 41, N-(3-(4-(1-acryloylpiperidin-4-yl)pyridin-2-yl)-5-methylbenzoyl)-2-fluorobenzenesulfonohydrazide] | ≤ 10 µM

Same assay, conditions: 60′ pre-incubation; Table 3; read-out: Kat6A Biochemical assay: IC50

Row | Structure (SMILES) | IC50
15 | C=CS(=O)(=O)NC1CCN(Cc2cc(OC)c3c(NS(=O)(=O)c4ccccc4OC)noc3c2)CC1 [compound 77, 2-methoxy-N-(4-methoxy-6-((4-(vinylsulfonamido)piperidin-1-yl)methyl)benzo[d]isoxazol-3-yl)benzenesulfonamide] | ≤ 10 µM
16 | C=CS(=O)(=O)NCCCOCc1cc(OC)c2c(NS(=O)(=O)c3cc(CC)ccc3OC)noc2c1 [compound 90, 5-ethyl-2-methoxy-N-(4-methoxy-6-((3-(vinylsulfonamido)propoxy)methyl)benzo[d]isoxazol-3-yl)benzenesulfonamide] | ≤ 10 µM
17 | COc1cccc(OC)c1S(=O)(=O)Nc1noc2cc(-c3cccc(N4CCN(C(=O)CCl)CC4)c3)cc(OC)c12 [compound 73, N-(6-(3-(4-(2-chloroacetyl)piperazin-1-yl)phenyl)-4-methoxybenzo[d]isoxazol-3-yl)-2,6-dimethoxybenzenesulfonamide] | ≤ 10 µM
18 | CCS(=O)(=O)NCc1cnn(Cc2cc(OC)c3c(NS(=O)(=O)c4c(OC)cccc4OC)noc3c2)c1 [compound 108] | ≤ 10 µM
19 | C#CC(=O)NCc1cnn(Cc2cc(OC)c3c(NS(=O)(=O)c4cc(C(=O)O)ccc4OC)noc3c2)c1 [compound 86, 4-methoxy-3-(N-(4-methoxy-6-((4-(propiolamidomethyl)-1H-pyrazol-1-yl)methyl)benzo[d]isoxazol-3-yl)sulfamoyl)benzoic acid] | > 10 µM
20 | C#CC(=O)N1CCC(c2ccnc(-c3cc(C)cc(C(=O)NNS(=O)(=O)c4ccccc4F)c3)c2)C1 (stereo not shown) [compound 92, 2-fluoro-N′-(3-methyl-5-(4-(1-propioloylpyrrolidin-3-yl)pyridin-2-yl)benzoyl)benzenesulfonohydrazide] | ≤ 10 µM
21 | COc1ccccc1S(=O)(=O)Nc1noc2cc(Cn3cc(CNS(=O)(=O)c4ccc(Cl)nc4)cn3)cc(OC)c12 [compound 83, 6-chloro-N-((1-((4-methoxy-3-((2-methoxyphenyl)sulfonamido)benzo[d]isoxazol-6-yl)methyl)-1H-pyrazol-4-yl)methyl)pyridine-3-sulfonamide] | ≤ 10 µM
22 | COc1ccccc1S(=O)(=O)Nc1noc2cc(Cn3cc(CNS(=O)(=O)c4cc(F)c(F)c(F)c4)cn3)cc(OC)c12 [compound 80, 3,4,5-trifluoro-N-((1-((4-methoxy-3-((2-methoxyphenyl)sulfonamido)benzo[d]isozolol-6-yl)methyl)-1H-pyrazol-4-yl)methyl) benzenesulfonamide] | ≤ 10 µM
23 | C#CC(=O)N1CCN(c2cccc(-c3cc4onc(NS(=O)(=O)c5c(OC)cccc5OC)c4cc3C)c2)CC1 [compound 120, 2,6-dimethoxy-N-(5-methyl-6-(3-(4-propioloylpiperazin-1-yl)phenyl)benzo[d]isoxazol-3-yl) benzenesulfonamide] | ≤ 10 µM
24 | C#CC(=O)N1CCN(c2nc(-c3cc(OC)c4c(NS(=O)(=O)c5c(OC)cccc5OC)noc4c3)cs2)CC1 [compound 97, 2,6-dimethoxy-N-(4-methoxy-6-(2-(4-propioloylpiperazin-1-yl)thiazol-4-yl)benzo[d]isoxazol-3-yl)benzenesulfonamide] | ≤ 10 µM
25 | C#CC(=O)N1CCC(c2cccc(-c3cc(OC)c4c(NS(=O)(=O)c5c(OC)cccc5OC)noc4c3)c2)CC1 [compound 101, 2,6-dimethoxy-N-(4-methoxy-6-(3-(1-propioloylpiperidin-4-yl)phenyl)benzo[d]isoxazol-3-yl) benzenesulfonamide] | ≤ 10 µM
26 | C#CC(=O)NCCNC(=O)c1cnn(Cc2cc(OC)c3c(NS(=O)(=O)c4cc(CC)ccc4OC)noc3c2)c1 [compound 94, 1-((3-((5-ethyl-2-methoxyphenyl)sulfonamido)-4-methoxybenzo[d]isoxazol-6-yl)methyl)-N-(2-propiolamidoethyl)-1H-pyrazole-4-carboxamide] | ≤ 10 µM
27 | C#CC(=O)N1CCN(c2cccc(-c3cc(OC)c4c(NS(=O)(=O)c5cc(CC)ccc5OC)noc4n3)c2)CC1 [compound 114, 25-ethyl-2-methoxy-N-(4-methoxy-6-(3-(4-propioloylpiperazin-1-yl)phenyl)isoxazolo[5,4-b]pyridin-3-yl)benzenesulfonamide] | > 10 µM
28 | C#CC(=O)N1CCN(c2cccc(-c3cc(OC)c4c(NS(=O)(=O)CC5CCCCC5)noc4c3)c2)CC1 [compound 117, 1-cyclohexyl-N-(4-methoxy-6-(3-(4-propioloylpiperazin-1-yl)phenyl)benzo[d]isoxazol-3-yl) methanesulfonamide] | ≤ 10 µM
